In PubChem BioAssay AID1259407 (Chemical Carcinogenesis Research Information System (CCRIS), 2018) one finds mutagenic call data, which are given here for six molecules.

For the data set, the system named is CCRIS mutagenicity, Ames/micronucleus/aberration tests. Briefly: CCRIS mutagenicity studies.
The mark [1] stands for this setting: Test System: AMES SALMONELLA TYPHIMURIUM, Strain/Indicator: TA98, Metabolic Activation: NONE, Method: STANDARD PLATE.
Setting [2] is: Test System: AMES SALMONELLA TYPHIMURIUM, Strain/Indicator: TA100, Metabolic Activation: NONE, Method: STANDARD PLATE.
Where [3] appears, read: Test System: MOUSE LYMPHOMA, Strain/Indicator: L5178Y (TK+/TK-), Metabolic Activation: RAT, LIVER, S-9, AROCLOR 1254, Method: SUSPENSION/PLATE.
The mark [4] stands for this setting: Test System: AMES SALMONELLA TYPHIMURIUM, Strain/Indicator: TA98, Metabolic Activation: NONE, Method: PREINCUBATION
[5] abbreviates: Test System: AMES SALMONELLA TYPHIMURIUM, Strain/Indicator: TA100, Metabolic Activation: NONE, Method: PREINCUBATION

Activity calls are given as the source filed them. How the calls were made is not given here.

In the case of `Nc1c(Oc2ccccc2)cc(O)c2c1C(=O)c1ccccc1C2=O`, the mutagenic call reads like this: (Test System: AMES SALMONELLA TYPHIMURIUM, Strain/Indicator: TA98, Metabolic Activation: HAMSTER, LIVER, S-9, AROCLOR 1254 (10%), Method: STANDARD PLATE) “active; positive”; under setting [1], “active; positive”; (Test System: AMES SALMONELLA TYPHIMURIUM, Strain/Indicator: TA98, Metabolic Activation: RAT, LIVER, S-9, AROCLOR 1254 (10%), Method: STANDARD PLATE) “active; positive”; (Test System: AMES SALMONELLA TYPHIMURIUM, Strain/Indicator: TA100, Metabolic Activation: HAMSTER, LIVER, S-9, AROCLOR 1254 (10%), Method: STANDARD PLATE) “inactive; negative”; under setting [2], “inactive; negative”; (Test System: AMES SALMONELLA TYPHIMURIUM, Strain/Indicator: TA100, Metabolic Activation: RAT, LIVER, S-9, AROCLOR 1254 (10%), Method: STANDARD PLATE) “inactive; negative”. Also, under setting [3], the mutagenic call was “inactive; negative. reevaluation of results: negative”.

`CSSC`: the mutagenic call by setting is: under setting [4], “inactive; negative”; (Test System: AMES SALMONELLA TYPHIMURIUM, Strain/Indicator: TA98, Metabolic Activation: RAT, LIVER, S-9, AROCLOR 1254, Method: PREINCUBATION) “inactive; negative”; under setting [5], “inactive; negative”; (Test System: AMES SALMONELLA TYPHIMURIUM, Strain/Indicator: TA100, Metabolic Activation: RAT, LIVER, S-9, AROCLOR 1254, Method: PREINCUBATION) “inactive; negative”; (Test System: AMES SALMONELLA TYPHIMURIUM, Strain/Indicator: TA102, Metabolic Activation: NONE, Method: PREINCUBATION) “inactive; negative”; (Test System: AMES SALMONELLA TYPHIMURIUM, Strain/Indicator: TA102, Metabolic Activation: RAT, LIVER, S-9, AROCLOR 1254, Method: PREINCUBATION) “inactive; negative”.

As to `COC12OOC1(C)Oc1ccccc12` (stereo unspecified), under setting [5], the mutagenic call is “active; positive”.

As to `CN(Cc1cnc2nc(N)nc(N)c2n1)c1ccc(C(=O)N[C@@H](CCC(=O)O)C(=O)O)cc1`, the mutagenic call runs as follows: (End Point: IN VITRO MICRONUCLEUS, Test System: V79 CELLS, Metabolic Activation: NONE) “inactive; negative”; (End Point: IN VIVO CHROMOSOMAL ABERRATIONS, Test System: BONE MARROW, Species: MOUSE, Strain/Sex: SWISS/MALE, FEMALE, Route: INTRAPERITONEAL) “active; positive (structural changes)”; (End Point: IN VIVO MICRONUCLEUS, Test System: BONE MARROW, Species: MOUSE, Strain/Sex: SWISS/MALE, FEMALE, Route: INTRAPERITONEAL) “active; positive”; (End Point: In vitro micronucleus, Test System: Human lymphoblastoid TK6 cells, Metabolic Activation: None) “active; positive (p<0.001)”; under setting [4], “inactive; negative”; under setting [1], “inactive; negative”. Besides, the mutagenic call is “inactive; negative” (Test System: AMES SALMONELLA TYPHIMURIUM, Strain/Indicator: TA98, Metabolic Activation: S-9, Method: PREINCUBATION); “inactive; negative” (Test System: AMES SALMONELLA TYPHIMURIUM, Strain/Indicator: TA98, Metabolic Activation: S-9, Method: STANDARD PLATE); “inactive; negative” under setting [5]; “inactive; negative” under setting [2]; “inactive; negative” (Test System: AMES SALMONELLA TYPHIMURIUM, Strain/Indicator: TA100, Metabolic Activation: S-9, Method: PREINCUBATION); “inactive; negative” (Test System: AMES SALMONELLA TYPHIMURIUM, Strain/Indicator: TA100, Metabolic Activation: S-9, Method: STANDARD PLATE). In addition, the mutagenic call is “inactive; negative” (Test System: AMES SALMONELLA TYPHIMURIUM, Strain/Indicator: TA102, Metabolic Activation: NONE, Method: STANDARD PLATE); “inactive; negative” (Test System: AMES SALMONELLA TYPHIMURIUM, Strain/Indicator: TA1537, Metabolic Activation: NONE, Method: STANDARD PLATE); “inactive; negative” (Test System: CHINESE HAMSTER V-79, Strain/Indicator: V-79 (HGPRT)/6-THIOGUANINE, Metabolic Activation: NONE); “inactive; negative” (Test System: CHINESE HAMSTER V-79, Strain/Indicator: V-79/6-THIOGUANINE, Metabolic Activation: NONE, Method: SUSPENSION/PLATE); “inactive; negative” (Test System: CHINESE HAMSTER V-79, Strain/Indicator: V-79/6-THIOGUANINE, Metabolic Activation: RAT, LIVER, HEPATOCYTES, Method: SUSPENSION/PLATE); “inactive; negative” (Test System: E. COLI, Strain/Indicator: WP2 (HCR), Metabolic Activation: NONE, Method: STANDARD PLATE). The mutagenic call (Test System: E. COLI, Strain/Indicator: WP2 (HCR), Metabolic Activation: S-9, Method: STANDARD PLATE) was “inactive; negative”; the mutagenic call (Test System: E. COLI, Strain/Indicator: WP2, Metabolic Activation: NONE, Method: STANDARD PLATE) was “active; positive”; the mutagenic call (Test System: MOUSE LYMPHOMA, Strain/Indicator: L5178Y (TK+/TK-), Metabolic Activation: NONE, Method: MICROWELL) is “active; positive”; the mutagenic call (Test System: MOUSE LYMPHOMA, Strain/Indicator: L5178Y (TK+/TK-), Metabolic Activation: NONE, Method: SUSPENSION/PLATE) was “active; positive”; the mutagenic call under setting [3] was “active; positive”; the mutagenic call (Test System: MOUSE LYMPHOMA, Strain/Indicator: L5178Y (TK+/TK-), Metabolic Activation: S-9, Method: MICROWELL) was “active; positive”.

Regarding `c1cc2cccc3c4cccc5cccc(c(c1)c23)c54`, the mutagenic call is, setting by setting: (Test System: AMES SALMONELLA TYPHIMURIUM, Strain/Indicator: TA97, Metabolic Activation: NONE, Method: STANDARD PLATE) “inactive; negative”; (Test System: AMES SALMONELLA TYPHIMURIUM, Strain/Indicator: TA97, Metabolic Activation: RAT, LIVER, S-9, PCB, Method: STANDARD PLATE) “active; positive”; (Test System: AMES SALMONELLA TYPHIMURIUM, Strain/Indicator: TA97A, Metabolic Activation: RAT, LIVER, S-9, AROCLOR 1254, Method: STANDARD PLATE) “active; positive”; under setting [1], “inactive; negative”; (Test System: AMES SALMONELLA TYPHIMURIUM, Strain/Indicator: TA98, Metabolic Activation: RAT, LIVER, S-9, AROCLOR 1254 (20 OR 50 µL S-9), Method: STANDARD PLATE) “active; positive”; (Test System: AMES SALMONELLA TYPHIMURIUM, Strain/Indicator: TA98, Metabolic Activation: RAT, LIVER, S-9, PCB, Method: STANDARD PLATE) “active; positive”. The mutagenic call under setting [2] was “inactive; negative”; the mutagenic call (Test System: AMES SALMONELLA TYPHIMURIUM, Strain/Indicator: TA100, Metabolic Activation: RAT, LIVER, S-9, AROCLOR 1254 (50 µL S-9), Method: STANDARD PLATE) is “active; positive”; the mutagenic call (Test System: AMES SALMONELLA TYPHIMURIUM, Strain/Indicator: TA100, Metabolic Activation: RAT, LIVER, S-9, AROCLOR 1254, Method: STANDARD PLATE) was “active; positive”; the mutagenic call (Test System: AMES SALMONELLA TYPHIMURIUM, Strain/Indicator: TA100, Metabolic Activation: RAT, LIVER, S-9, PCB, Method: STANDARD PLATE) was “active; positive”; the mutagenic call (Test System: AMES SALMONELLA TYPHIMURIUM, Strain/Indicator: TA1535, Metabolic Activation: RAT, LIVER, S-9, AROCLOR 1254, Method: STANDARD PLATE) was “active; positive”; the mutagenic call (Test System: AMES SALMONELLA TYPHIMURIUM, Strain/Indicator: TA1537, Metabolic Activation: RAT, LIVER, S-9, AROCLOR 1254, Method: STANDARD PLATE) is “active; positive”.

As to `CC(O)/C=C/C=O` (stereo unspecified), the mutagenic call (Test System: AMES SALMONELLA TYPHIMURIUM, Strain/Indicator: TA104, Metabolic Activation: NONE, Method: PREINCUBATION) was “active; positive”.
